Values joined by “and” are separate entries in the source; they are usually repeats but may differ in a detail not shown here. Equal entries are not always repeated. Where only a bound is given, the exact number is not on record here.

Data set [1] concerns extra-cellular dopamine in the nucleus accumbens shell. Description: In vivo microdialysis, nucleus accumbens shell, dopamine. On the set-up: species or system rat. As to conditions: 5 male Wistar rats, 10 mg/kg s.c. The protocol:
(§1) For microdialysis studies, drug naïve rats were implanted with a microdialysis guide cannula and probe using previously published procedures. A guide cannula (SciPro, Sanborn, NY) was implanted aimed at the NAc shell (AP = +1.6 mm, bregma; ML = ±2.0 mm, bregma; DV = –5.0 mm, dura), and rats were allowed one week for recovery. On the evening prior to the experiment, a 2 mm microdialysis probe was inserted into the guide cannula and perfused overnight with artificial CSF (0.1 µl/min) composed of the following (in mM): 149 NaCl, 2.8 KCl, 1.2 CaCl2, 1.2 MgCl2, 0.25 ascorbic acid, 5.4 D-glucose. The following morning, the perfusion rate was raised to 0.6 µl/min and samples were collected in 15 min fractions following 1 hr of equilibration.

For data set [2], the system named is extra-cellular serotonin in the nucleus accumbens shell. The experiment in a line: In vivo microdialysis, nucleus accumbens shell, serotonin. Further details: species or system rat. As to conditions: 5 male Wistar rats, 10 mg/kg s.c. The protocol: as §1
For data set [3], the system named is Sprague-Dawley rats. Further details: method as in PMID 21810934. As to conditions: four sequential doses of 1.0 or 3.0 mg/kg s.c. two hours apart, and i.v. self-administration (mean 1.77–6.78 mg/kg), ambient ≥27°C; cited from earlier work.
Data set [4] has as its system experienced-user sample. As to conditions: one experienced-user sample; cited from earlier work.
A short description of data set [5]: Pharmacokinetic study, plasma levels by LC/MS/MS after s.c. dosing. It counts as in vivo, rat. The conditions noted are these: for AUC(0-inf) / Tmax / Cmax: rat, plasma, sc, 5.6 mg/kg s.c. As to the method:
Surgical placement of jugular vein catheters was conducted at the vendor prior to delivery at the laboratory. Blood samples were collected via the jugular catheters at timepoints 5, 15, 30, 60, 120 min and 3, 6 and 24 hrs after dosing. Plasma was stored at −80°C until analysis for drug concentrations via LC/MS/MS. Sample analysis was by LC/MS/MS with data analysis via the non compartmental analysis model of PK Solutions (Summit Research Services; Montrose, CO). The summary data for the Sprague-Dawley group have been previously described.

For data set [6], the system named is Wistar and Sprague-Dawley rats. Description: Locomotor activity (activity counts) by implanted radiotelemetry after s.c. drug challenge.
The test system of data set [7] is Wistar and Sprague-Dawley rats. Description: Body temperature by implanted radiotelemetry after s.c. drug challenge.
The test system of data set [8] is 5-HT2 receptor subtypes versus D2 receptors. On the set-up: method as in PMID 21824752. The conditions noted are these: in vitro; greater affinity for 5-HT2; cited from earlier work.
The subject of data set [9] is extracellular dopamine. Further details: method as in PMID 21615721, PMID 22169943. As to conditions: cited from earlier work.
Where [10] appears, read: Wistar Han, male Wistar rats (N = 3).
Setting [11] is: male Sprague Dawley rats (N = 3), summary data previously described [32].
Where [12] appears, read: subcutaneous dosing, rats (strain not given).
The mark [13] stands for this setting: Sprague-Dawley rats, 23°C ambient, first hour after 3.2 mg/kg 4-MMC and 5.6 mg/kg METH, vs pretreatment and vehicle.
Where [14] appears, read: Wistar and Sprague-Dawley rats, s.c.
Where [15] appears, read: Wistar rats, 23°C ambient, first hour after 3.2 mg/kg 4-MMC or 5.6 mg/kg METH, second hour after 10.0 mg/kg 4-MMC, third hour after 5.6 mg/kg METH.
[16] abbreviates: both strains, 23°C ambient, first hour after 10.0 mg/kg 4-MMC or 1.0 mg/kg METH s.c., greater in Sprague-Dawley.

For `CNC(C)C(=O)c1ccc(C)cc1` (stereo not drawn) [4-MMC, 4-methylmethcathinone], the “relative increase of extra-cellular DA over baseline” value in [1] was ~9 fold. The “duration of significant increase of DA over the pre-treatment average” value in data set [1] (Dunnett post-hoc) worked out at 2 h. Also, the “relative increase of extra-cellular 5-HT over baseline” value in data set [2] is ~22 fold. Besides, the “duration of significant increase of 5-HT over the pre-treatment average” value in [2] (Dunnett post-hoc) worked out at 1.5 h. Also, the rectal temperature result in data set [3] is on record as “elevates”. Also, the “users reporting cold extremities” value in data set [4] is on record as “About 15%”. For the same molecule, the “users reporting excessive perspiration” value in [4] is given as 67%. The results for the AUC(0-inf) in data set [5] (setting [10]) and in data set [5] (setting [11]) were 870 ng·h/mL and 1170 ng·h/mL, respectively. The Tmax in [5] (setting [10]) and in [5] (setting [11]) was 15 min throughout. For the same molecule, the Cmax (as a rule, the maximum level reached in the sampled fluid or tissue) is 868 ng/mL and 4.9 µM in data set [5] (setting [10]); 1210 ng/mL and 6.81 µM in [5] (setting [11]). The elimination from plasma entry in data set [5] (setting [12]) is reported as “mostly eliminated within two hours”. The “time at which maximum plasma levels were observed” value in data set [5] (setting [12]) is ≤ 15 min. The “locomotor activity (hourly summed counts)” value (from here on “locomotor activity”) was “reliably higher” in data set [6] (setting [13]); “higher” in [6] (Sprague-Dawley rats, 27°C ambient, first hour after 5.6 or 10.0 mg/kg, vs pre-injection, vehicle and Wistar); “higher than the vehicle condition” in data set [6] (setting [15]); “higher” in data set [6] (Wistar rats, 27°C ambient, after 3.2, 5.6 and 10.0 mg/kg, vs hour before injection and vehicle); “increased over pretreatment levels and vehicle” in data set [6] (setting [16]); “significantly elevated” in [6] (each strain, 23°C ambient, first hour after 5.6 or 10.0 mg/kg s.c., vs pre-injection hour and saline). Further, the “locomotor activity” value in data set [6] (each strain, 23°C ambient, second hour after 10.0 mg/kg, vs vehicle, effect greater in Sprague-Dawley) was “significant increase”. Also, the “efficacy in stimulating locomotion relative to d-methamphetamine (METH)” value in data set [6] (setting [14]) was “equally efficacious”. In addition, the “potency in stimulating locomotion relative to METH” value in [6] (setting [14]) is listed as “about tenfold less potent”. Besides, the “body temperature (hourly average)” value in data set [7] (Sprague-Dawley rats, 23°C ambient, only following 3.2 mg/kg (2, 3 hrs) and 5.6 mg/kg (3 hrs)) was “lower than both the pretreatment baseline and the comparable timepoint after vehicle injection”; in [7] (Sprague-Dawley rats, 23°C ambient, second hour after 10.0 mg/kg), “increased relative to vehicle”; in data set [7] (Sprague-Dawley rats, 27°C ambient, first hour after administration), “unchanged”; in data set [7] (Sprague-Dawley rats, 27°C ambient, third hour after 1.0 mg/kg, vs baseline and vehicle), “reliable decrease”; in data set [7] (Wistar rats, 23°C ambient, first hour after 3.2, 5.6 and 10 mg/kg s.c., vs baseline, saline and Sprague-Dawley), “significantly lowered”; in data set [7] (Wistar rats, 27°C ambient, first hour after 5.6 or 10.0 mg/kg s.c., vs baseline, saline and Sprague-Dawley) it was “decreased”. The mean temperature nadir in data set [7] (Wistar rats, 10 mg/kg s.c., 23°C ambient, (±SEM)) is 36.74 (±0.187) °C; in data set [7] (Wistar rats, 10 mg/kg s.c., 27°C ambient, (±SEM)), 37.35 (±0.115) °C. For the same molecule, in data set [7] (s.c. dosing, rats, applies to temperature and activity), the “duration of temperature and activity effects” value is “about 90 minutes”. Besides, in [8], the “affinity for 5-HT2 receptor subtypes relative to D2 receptors” value was 15 fold. Further, the “increase of extracellular dopamine, less than METH” value in [9] was “about 6 fold”.
As to `CCCN(CCC)C1CCc2cccc(O)c2C1` (stereo not drawn) [8-OH-DPAT], the mean temperature nadir is 35.62 (±0.177) °C in [7] (Sprague-Dawley rats, 0.3 mg/kg s.c., 23°C ambient) and 35.18 (±0.178) °C in [7] (Wistar rats, 0.3 mg/kg s.c., 23°C ambient). The “body temperature (hourly average)” value in data set [7] (Sprague-Dawley rats, 0.05, 0.1, 0.3 mg/kg, first hour (second hour also for 0.3 mg/kg), vs vehicle and baseline) is reported as “lowered body temperature”; in [7] (Wistar rats, two hours after dosing with all three doses (0.05, 0.1, 0.3 mg/kg), vs vehicle and baseline), “hypothermia”. In addition, the body temperature result in [7] (each strain of rats, 23°C ambient, s.c.) was “significantly reduced”.
For `CN[C@@H](C)Cc1ccccc1` [METH, d-methamphetamine], the “locomotor activity” value in [6] (setting [13]) was “reliably higher”; in data set [6] (setting [15]) it was “higher than the vehicle condition”; in data set [6] (setting [16]), “increased over pretreatment levels and vehicle”; in [6] (both strains, 23°C ambient, second hour after 5.6 mg/kg s.c.), “suppressed”. Further, the “body temperature (hourly average)” value in [7] (Sprague-Dawley rats, 23°C ambient, first hour after 1.0 mg/kg and first two hours after 5.6 mg/kg s.c., vs baseline and vehicle) is “significantly increased”.
